Assay results: patent US20090030037A1, “Sustained Release Formulation and Dosing Schedules of Leukotriene Synthesis Inhibitor for Human Therapy” (deCODE Genetics ehf., priority 2005, published 2009)
Read-outs that look alike come from different tables or passages of the source.

How the values were obtained:
Format in all cases: in vivo, human
[1] = Clinical studies in CAD patients: safety and tolerability
Experimental: Previous clinical studies administered the dosages of DG-031 either in a single dose (QD) or twice a day (BID)
A total daily dose of 750 mg, dosed at 250 mg TID, provides a preferable PK/PD relationship (inhibition of LTB4) and efficacy in terms of lowering other biomarkers of MI risk (i.e. MPO and CRP). In addition, a total daily dose of 1000 mg, dosed at 500 mg BID, also provides a preferable PK and PD time course (inhibition of LTB4) and efficacy in terms of lowering other biomarkers of MI risk (i.e. MPO). Patient compliance is an important consideration when designing a dosing schedule and patients are more likely to comply with a twice a day dosing (BID) than three times a day doing (TID).

[2] = Study DG-031-204: steady state DG-031 plasma concentrations; conditions: for concentration at 0 h / concentration at 0.5 h / concentration at 1 h / concentration at 2 h / concentration at 4 h / concentration at 6 h: human, plasma, oral, 500 mg, read-out: Steady state DG-031 exposure, Geometric Mean; for concentration at 0 h: 0 hr post dose; for concentration at 0.5 h: 0.5 hr post dose; for concentration at 1 h: 1 hr post dose; for concentration at 2 h: 2 hr post dose; for concentration at 4 h: 4 hr post dose; for concentration at 6 h: 6 hr post dose
Experimental: Blood samples were collected for determining DG-031 concentrations in a subset of patients (n=22). Samples were collected just prior to dosing and at 0.5, 1, 2, 4, and 6 hours following administration of DG-031 500 mg BID or TID.

LTB4 = assay: Exposure-response analysis: estimated reduction in stimulated LTB4 by DG-031 daily dose; conditions: for Estimated Percent LTB4 Reduction by DG-031 Daily Dose, Mean: stimulated LTB4, mean model prediction from studies DG-031-201 and DG-031-203
Experimental: Administration of DG-031 500 mg BID reduced LTB4 levels to the target 35% reduction, as measured in the ionophore-stimulation assay described in Example 1. The estimated DG-031-induced reduction in stimulated LTB4 levels was based on all the relevant data observed in the DG-031-201 and DG-031-203 studies. The control baseline was 7.8%. The data presented in Table 14 are the mean and the 5th and 95th percentiles based on the mean model prediction (the 90% confidence interval on the estimated LTB4 response).
The pharmacokinetic characteristics of the tested DG-031 formulation result in an observed mean peak concentrations of 8.8 μg/mL and mean trough concentrations of 4.3 μg/mL. (Table 18) The characteristics of the tested formulation leads to prolonged drug absorption that minimizes the peak to trough fluctuation in DG-031 plasma concentration and LTB4 response.

[3] = Study DG-031-204: liver function tests (AST, ALT, GGT); conditions: 500 mg BID or TID
Experimental: An additional single site, open label study was carried out to obtain biomarker and safety data on additional DG-031 doses (i.e., 1000 mg and 1500 mg). This study examined the safety, tolerability and dose-related effects of DG-031 on inflammatory biomarkers including: LTB4, hsCRP, and MPO. A total of 119 patients with a prior history of CAD and MI were randomized to receive either 1000 mg DG-031 (500 mg BID) or 1500 mg DG-031 (500 mg TID) daily for 4-6 weeks. Treatment with DG-031 in addition to the subject's standard care, medication, and treatment, was prescribed by the patient's cardiologist. A majority of the subjects received statin therapy before, during and after the study. Follow-up assessments were performed 2 weeks after the end of study drug administration.
Liver function tests (AST, ALT, GGT) were assessed weekly during study drug administration and two weeks after dosing. […] Serum creatinine (Cr) was measured weekly during study drug administration and two weeks after dosing. In both the 500 mg BID and 500 mg TID treatment groups, mean serum Cr concentrations increased 4-5% relative to baseline levels. At the 2-week follow up visit, mean serum Cr returned to baseline in the cohort treated for 4 weeks, but remained elevated in the group treated for 6 weeks. Creatine kinase (CK) measurements were obtained weekly during study drug administration and two weeks after dosing.

## O=C(O)[C@@H](c1ccc(OCc2ccc3ccccc3n2)cc1)C1CCCC1 [DG-031, (R)-(+)-alpha-cyclopentyl-4-(2-quinolinylmethoxy)-Benzeneacetic acid]
[1]; 250 mg QD, 375 mg QD, 250 mg BID, 375 mg BID, 250 mg TID
  Safety and tolerability: safe and well tolerated
[1]; total daily doses 250, 500, 750 mg, 128 days
  Safety and tolerability: safe and well tolerated
[2]; 500 mg BID or TID, subset n=22
  DG-031 concentrations observed: up to 20.3 μg/mL
[2]; 500 mg BID, steady state
  Mean trough concentration: 4.3 µg/mL
  Observed mean peak concentration: 8.8 µg/mL
[2]; 12 hour period, BID dosing regimen
  Observed peak to trough fluctuation: 2-3 fold
[2]; 500 mg BID
  concentration at 0 h: 4300 ng/mL
  concentration at 0.5 h: 4700 ng/mL
  concentration at 1 h: 6100 ng/mL
  concentration at 2 h: 8600 ng/mL
  concentration at 4 h: 8800 ng/mL
  concentration at 6 h: 7000 ng/mL
[2]; 500 mg TID
  concentration at 0 h: 6900 ng/mL
  concentration at 0.5 h: 6800 ng/mL
  concentration at 1 h: 8500 ng/mL
  concentration at 2 h: 10100 ng/mL
  concentration at 4 h: 10000 ng/mL
  concentration at 6 h: 7400 ng/mL
LTB4; 500 mg BID (1000 mg daily)
  Average drug exposure: 7.6 µg/mL
LTB4; 500 mg BID, 90% prediction interval −45% to −24%
  Reduction in stimulated LTB4 production: 37%
LTB4; daily dose 250
  Estimated Percent LTB4 Reduction by DG-031 Daily Dose, Mean: −8.7%
LTB4; daily dose 500
  Estimated Percent LTB4 Reduction by DG-031 Daily Dose, Mean: −19.4%
LTB4; daily dose 750
  Estimated Percent LTB4 Reduction by DG-031 Daily Dose, Mean: −28.8%
LTB4; daily dose 1000
  Estimated Percent LTB4 Reduction by DG-031 Daily Dose, Mean: −37.1%
LTB4; daily dose 1250
  Estimated Percent LTB4 Reduction by DG-031 Daily Dose, Mean: −44.5%
LTB4; daily dose 1500
  Estimated Percent LTB4 Reduction by DG-031 Daily Dose, Mean: −50.9%
[3]
  Mean liver function tests (AST, ALT, GGT): No adverse trends
